From patent US11944622B2 (Annapurna Bio, Inc., priority 2018, dated 2024) come the findings set out here.

This assay addresses T1, APJ Receptor (Homo sapiens, UniProt P35414).
T1 sequence (P35414 1-380): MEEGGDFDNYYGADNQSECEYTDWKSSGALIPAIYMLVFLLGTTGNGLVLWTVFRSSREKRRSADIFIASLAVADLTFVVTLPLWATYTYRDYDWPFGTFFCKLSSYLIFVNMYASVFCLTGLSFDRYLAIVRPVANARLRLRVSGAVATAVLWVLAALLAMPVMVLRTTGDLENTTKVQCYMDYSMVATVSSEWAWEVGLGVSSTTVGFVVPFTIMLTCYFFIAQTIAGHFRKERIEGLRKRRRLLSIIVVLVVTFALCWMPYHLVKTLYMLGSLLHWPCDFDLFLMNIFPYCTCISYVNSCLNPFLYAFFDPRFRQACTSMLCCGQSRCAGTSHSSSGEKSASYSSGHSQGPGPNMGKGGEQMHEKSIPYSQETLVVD
Nature of the assay: APJ cAMP assay (DiscoverX enzyme fragment complementation; inhibition of forskolin-stimulated cAMP). The format is cell-based. As to conditions: CHO-K1 cell line stably expressing the APJ Receptor; EC80 forskolin; 30 minutes at 37° C.; read-out: Potency Range (APJ cAMP EC50). A digest of the protocol:
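CHO-K1 cells stably expressing APJ incubated with compound plus EC80 forskolin for 30 min at 37° C. cAMP detected by β-galactosidase enzyme fragment complementation with chemiluminescent read-out; % activity calculated relative to vehicle and maximal controls.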
A general note: Cyclic AMP is a second messenger, typically raised through Gs and lowered through Gi signalling.

Molecules are shown by their SMILES. Where only a bound is given, the exact number is not on record here.

For the compound `CCOc1cccc(-c2nc3ncc(NS(=O)(=O)Cc4ccc(F)cn4)nc3n2-c2c(OC)cccc2OC)n1` [Example 78, N-(1-(2,6-dimethoxyphenyl)-2-(6-ethoxypyridin-2-yl)-1H-imidazo[4,5-b]pyrazin-6-yl)-1-(5-fluoropyridin-2-yl)methanesulfonamide], the EC50 was below 1 nM. Take `CCOc1cccc(-c2nc3ncc(NS(=O)(=O)C[C@H]4CCN(C)C(=O)C4)nc3n2-c2c(OC)cccc2OC)n1` [Example 71, (S)—N-(1-(2,6-Dimethoxyphenyl)-2-(6-ethoxypyridin-2-yl)-1H-imidazo[4,5-b]pyrazin-6-yl)-1-(1-methyl-2-oxopiperidin-4-yl)methanesulfonamide]: the EC50 was below 1 nM. To `CCOc1cccc(-c2nc3nc(Cl)c(NS(=O)(=O)C4CCOCC4)nc3n2-c2c(OC)cccc2OC)n1` [Example 111, N-(5-Chloro-1-(2,6-dimethoxyphenyl)-2-(6-ethoxypyridin-2-yl)-1H-imidazo[4,5-b]pyrazin-6-yl)tetrahydro-2H-pyran-4-sulfonamide] belongs 1 to 100 nM. The result for `CCOc1cccc(-c2nc3ncc(NS(=O)(=O)C4CC4)nc3n2-c2c(OC)cccc2OC)n1` [Example 22, N-(1-(2,6-dimethoxyphenyl)-2-(6-ethoxypyridin-2-yl)-1H-imidazo[4,5-b]pyrazin-6-yl)cyclopropanesulfonamide] reads 1 to 100 nM.

As to `CCOc1cccc(-c2nc3ncc(NS(=O)(=O)N4CCCCC4)nc3n2-c2c(OC)cccc2OC)n1` [Example 75, N-(1-(2,6-dimethoxyphenyl)-2-(6-ethoxypyridin-2-yl)-1H-imidazo[4,5-b]pyrazin-6-yl)piperidine-1-sulfonamide], the EC50 was below 1 nM.

In the case of `COc1cccc(OC)c1-n1c(-c2cccc(OC3CC3)n2)nc2ncc(NS(C)(=O)=O)nc21` [Example 54, N-(2-(6-cyclopropoxypyridin-2-yl)-1-(2,6-dimethoxyphenyl)-1H-imidazo[4,5-b]pyrazin-6-yl)methanesulfonamide], the EC50 was 1 to 100 nM. For the compound `CCOc1cccc(-c2nc3nc(Cl)c(NS(C)(=O)=O)nc3n2-c2c(OC)cccc2OC)n1` [Example 64, N-(5-chloro-1-(2,6-dimethoxyphenyl)-2-(6-ethoxypyridin-2-yl)-1H-imidazo[4,5-b]pyrazin-6-yl)methanesulfonamide], the EC50 is 1 to 100 nM. To `CCOc1cccc(-c2nc3nc(CC4CCC4)c(NS(C)(=O)=O)nc3n2-c2c(OC)cccc2OC)n1` [Example 88] belongs below 1 nM. The result for `COc1cccc(OC)c1-n1c(-c2ccc(C)o2)nc2ncc(NS(C)(=O)=O)nc21` [Example 131, N-(1-(2,6-dimethoxyphenyl)-2-(5-methylfuran-2-yl)-1H-imidazo[4,5-b]pyrazin-6-yl)methanesulfonamide] reads 1 to 100 nM; that for `CCOc1cccc(-c2nc3nc(Cl)c(NS(=O)(=O)c4ccc(C(F)F)cc4)nc3n2-c2c(OC)cccc2OC)n1` [Example 106, N-(5-Chloro-1-(2,6-dimethoxyphenyl)-2-(6-ethoxypyridin-2-yl)-1H-imidazo[4,5-b]pyrazin-6-yl)-4-(difluoromethyl)benzenesulfonamide], 1 to 100 nM. The result for `CCOc1cccc(-c2nc3nc(Cl)c(NS(=O)(=O)C[C@H]4C[C@](C)(O)C4)nc3n2-c2c(OC)cccc2OC)n1` [Example 115, N-(5-Chloro-1-(2,6-dimethoxyphenyl)-2-(6-ethoxypyridin-2-yl)-1H-imidazo[4,5-b]pyrazin-6-yl)-1-((1r,3r)-3-hydroxymethylcyclobutyl) methanesulfonamide] reads below 1 nM.

As a reminder, the EC50 is the midpoint of the concentration-response curve.
